The text below walks through data of patent US11034650B2, “Compounds useful for treating a Mannheimia haemolytica or Histophilus somni infection” (Intervet Inc., priority 2016, dated 2021).

Holding throughout (assay type): cell-based
For test [1], the system named is Mannheimia haemolytica MH 6357 (M7/2, reference strain, cattle infection strain). Description: MIC, broth-microdilution (CLSI VET01-A4), strain MH 6357. The note with it: Mannheimia haemolytica strain MH 6357, broth-microdilution; unit assumed. In short, it runs like this:
(§1)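 MIC is the lowest compound concentration showing no visible growth by eye, read from doubling-dilution microdilution trays. Method followed CLSI VET01-A4, with interpretation under CLSI VET01-S3.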

Test [2] concerns Mannheimia haemolytica MH 6374 (ATCC 33396, reference strain). Description: MIC, broth-microdilution (CLSI VET01-A4), strain MH 6374. The settings on record: Mannheimia haemolytica strain MH 6374, broth-microdilution; unit assumed. A digest of the protocol: as §1
Test [3] has as its system Mannheimia haemolytica MH 10720 (154, BRD field isolate). Description: MIC, broth-microdilution (CLSI VET01-A4), strain MH 10720. The note with it: Mannheimia haemolytica strain MH 10720, broth-microdilution; unit assumed. In short, it runs like this: as §1
(In general: Broth dilution looks for growth in wells or tubes with falling amounts of substance.)

Test [4] has as its system Mannheimia haemolytica MH 12587 (1071, BRD field isolate, macrolide-resistance: erm+, E+). The test is described as follows: MIC, broth-microdilution (CLSI VET01-A4), strain MH 12587. The settings on record: Mannheimia haemolytica strain MH 12587, broth-microdilution; unit assumed. In short, it runs like this:
as §1

For test [5], the system named is Mannheimia haemolytica MH 13065 (XB0446-6003.9, BRD field isolate). Description: MIC, broth-microdilution (CLSI VET01-A4), strain MH 13065. The settings on record: Mannheimia haemolytica strain MH 13065, broth-microdilution; unit assumed. In short, it runs like this: as §1
Test [6] has as its system Mannheimia haemolytica MH 13093 (XB0472-6014.1, BRD field isolate). Description: MIC, broth-microdilution (CLSI VET01-A4), strain MH 13093. The note with it: Mannheimia haemolytica strain MH 13093, broth-microdilution; unit assumed. In short, it runs like this: as §1
Test [7] has as its system Pasteurella multocida PM 6267 (P 2225 (L386), reference strain, mouse infection strain). Description: MIC, broth-microdilution (CLSI VET01-A4), strain PM 6267. The settings on record: Pasteurella multocida strain PM 6267, broth-microdilution; unit assumed. In short, it runs like this:
as §1

The test system of test [8] is Pasteurella multocida PM 6391 (ATCC 43137, reference strain). Description: MIC, broth-microdilution (CLSI VET01-A4), strain PM 6391. The settings on record: Pasteurella multocida strain PM 6391, broth-microdilution; unit assumed. In short, it runs like this: as §1
In test [9] the test system is Pasteurella multocida PM 10775 (080130003051, BRD field isolate). Description: MIC, broth-microdilution (CLSI VET01-A4), strain PM 10775. The note with it: Pasteurella multocida strain PM 10775, broth-microdilution; unit assumed. A digest of the protocol: as §1
In test [10] the test system is Pasteurella multocida PM 12080 (IV102277-0093, BRD field isolate). The test is described as follows: MIC, broth-microdilution (CLSI VET01-A4), strain PM 12080. The note with it: Pasteurella multocida strain PM 12080, broth-microdilution; unit assumed. A digest of the protocol: as §1

≈ marks a conversion by molar mass, not a printed value. Where only a bound is given, the exact number is not on record here.

As to `C=CCNCc1ccc(C#Cc2ccc(C(=O)N[C@H](C(=O)NO)C(C)(C)S(C)(=O)=O)cc2)cn1` [Compound 370], the MIC MH 6357 in [1] stood at 0.8 µg/mL (≈ 1.65 µM). In test [2], the MIC MH 6374 was 1.6 µg/mL (≈ 3.3 µM). For the same compound, the MIC MH 10720 in test [3] was 0.8 µg/mL (≈ 1.65 µM). This compound also yielded an MIC MH 12587 in [4] of 3.1 µg/mL (≈ 6.4 µM). Further, in [5], the MIC MH 13065 stood at 1.6 µg/mL (≈ 3.3 µM). In addition, the MIC MH 13093 in test [6] was 3.1 µg/mL (≈ 6.4 µM). For the same compound, in test [7], the MIC PM 6267 stood at 0.2 µg/mL (≈ 0.413 µM). For the same compound, the MIC PM 6391 in test [8] was found to be 0.4 µg/mL (≈ 0.825 µM). The MIC PM 10775 in test [9] was not above 0.1 µg/mL. The MIC PM 12080 in [10] turned out to be 0.2 µg/mL (≈ 0.413 µM).
Take `CC(C)([C@H](NC(=O)c1ccc(C#Cc2ccc(CNCc3ccncc3)nc2)cc1)C(=O)NO)S(C)(=O)=O` [Compound 371]: the MIC MH 6357 in test [1] worked out at 1.6 µg/mL (≈ 2.99 µM). In test [2], this compound had an MIC MH 6374 of 1.6 µg/mL (≈ 2.99 µM). Further, the MIC MH 10720 in test [3] was 0.8 µg/mL (≈ 1.49 µM). This compound also returned an MIC MH 12587 in [4] of 3.1 µg/mL (≈ 5.79 µM). In test [5], this compound had an MIC MH 13065 of 1.6 µg/mL (≈ 2.99 µM). For the same compound, the MIC MH 13093 in [6] was 3.1 µg/mL (≈ 5.79 µM). In test [7], the MIC PM 6267 is 0.2 µg/mL (≈ 0.373 µM). The MIC PM 6391 in [8] turned out to be 0.2 µg/mL (≈ 0.373 µM). This compound also yielded an MIC PM 10775 in test [9] not above 0.1 µg/mL. This compound also showed an MIC PM 12080 in test [10] of 0.2 µg/mL (≈ 0.373 µM).
As to `CC(C)([C@H](NC(=O)c1ccc(C#Cc2ccc(CNCC#N)nc2)cc1)C(=O)NO)S(C)(=O)=O` [Compound 372], the MIC MH 6357 in [1] is 6.3 µg/mL (≈ 13 µM). Moreover, the MIC MH 6374 in [2] is 12.5 µg/mL (≈ 25.9 µM). The MIC MH 10720 in test [3] is 3.1 µg/mL (≈ 6.41 µM). The MIC MH 12587 in [4] was determined as 25 µg/mL (≈ 51.7 µM). Besides, the MIC MH 13065 in [5] was 12.5 µg/mL (≈ 25.9 µM). In addition, the MIC MH 13093 in [6] was determined as 25 µg/mL (≈ 51.7 µM). In test [7], this compound gave an MIC PM 6267 of 1.6 µg/mL (≈ 3.31 µM). In addition, in test [8], the MIC PM 6391 came to 1.6 µg/mL (≈ 3.31 µM). In addition, the MIC PM 10775 in test [9] stood at 0.4 µg/mL (≈ 0.827 µM). For the same compound, in [10], the MIC PM 12080 amounted to 0.8 µg/mL (≈ 1.65 µM).
For the compound `CC(C)([C@H](NC(=O)c1ccc(C#Cc2ccc(CNCc3cccnc3)nc2)cc1)C(=O)NO)S(C)(=O)=O` [Compound 373], the MIC MH 6357 in [1] was found to be 1.6 µg/mL (≈ 2.99 µM). Also, the MIC MH 6374 in [2] worked out at 3.1 µg/mL (≈ 5.79 µM). For the same compound, the MIC MH 10720 in test [3] was 0.4 µg/mL (≈ 0.747 µM). The MIC MH 12587 in test [4] was found to be 6.3 µg/mL (≈ 11.8 µM). Besides, in test [5], the MIC MH 13065 amounted to 3.1 µg/mL (≈ 5.79 µM). The same compound displayed an MIC MH 13093 in test [6] of 3.1 µg/mL (≈ 5.79 µM). The MIC PM 6267 in [7] amounted to 0.4 µg/mL (≈ 0.747 µM). This compound displayed an MIC PM 6391 in test [8] of 0.8 µg/mL (≈ 1.49 µM). This compound had an MIC PM 10775 in test [9] not above 0.1 µg/mL. The MIC PM 12080 in [10] was 0.4 µg/mL (≈ 0.747 µM).
In the case of `CC(C)([C@H](NC(=O)c1ccc(C#Cc2ccc(CNCc3nccs3)nc2)cc1)C(=O)NO)S(C)(=O)=O` [Compound 374], in test [1], the MIC MH 6357 came out at 0.8 µg/mL (≈ 1.48 µM). This compound also had an MIC MH 6374 in test [2] of 0.8 µg/mL (≈ 1.48 µM). This compound also returned an MIC MH 10720 in test [3] of 0.4 µg/mL (≈ 0.738 µM). The MIC MH 12587 in [4] worked out at 3.1 µg/mL (≈ 5.72 µM). Besides, in [5], the MIC MH 13065 stood at 1.6 µg/mL (≈ 2.95 µM). The compound further yielded an MIC MH 13093 in [6] of 3.1 µg/mL (≈ 5.72 µM). In addition, the MIC PM 6267 in [7] came out at 0.2 µg/mL (≈ 0.369 µM). Besides, in test [8], the MIC PM 6391 worked out at 0.2 µg/mL (≈ 0.369 µM). This compound also returned an MIC PM 10775 in test [9] not above 0.1 µg/mL. This compound registered an MIC PM 12080 in [10] not above 0.1 µg/mL.
As for `O=C(N[C@@H](CO)C(=O)NO)c1ccc(C#Cc2ccc([N+](=O)[O-])cc2)cc1` [Compound 375, N-[(1S)-2-(hydroxyamino)-1-(hydroxymethyl)-2-oxo-ethyl]-4-[2-(4-nitrophenyl)ethynyl]benzamide], in [1], the MIC MH 6357 is 1.6 µg/mL (≈ 4.33 µM). For the same compound, in test [2], the MIC MH 6374 turned out to be 3.1 µg/mL (≈ 8.39 µM). The MIC MH 10720 in test [3] was found to be 0.8 µg/mL (≈ 2.17 µM). The compound further had an MIC MH 12587 in test [4] of 6.3 µg/mL (≈ 17.1 µM). Further, in [5], the MIC MH 13065 worked out at 3.1 µg/mL (≈ 8.39 µM). In addition, the MIC MH 13093 in [6] amounted to 6.3 µg/mL (≈ 17.1 µM). This compound gave an MIC PM 6267 in test [7] of 0.8 µg/mL (≈ 2.17 µM). The compound further yielded an MIC PM 6391 in [8] of 1.6 µg/mL (≈ 4.33 µM). In test [9], the MIC PM 10775 is not above 0.1 µg/mL. In addition, the MIC PM 12080 in test [10] was found to be 3.1 µg/mL (≈ 8.39 µM).
`Nc1ccc(C#Cc2ccc(C(=O)N[C@@H](CO)C(=O)NO)cc2)cc1` [Compound 376, 4-[2-(4-aminophenyl)ethynyl]-N-[(1S)-2-(hydroxyamino)-1-(hydroxymethyl)-2-oxo-ethyl]benzamide] displayed an MIC MH 6357 in test [1] of 1.6 µg/mL (≈ 4.71 µM). The compound further returned an MIC MH 6374 in test [2] of 3.1 µg/mL (≈ 9.14 µM). The compound further came in with an MIC MH 10720 in test [3] of 0.8 µg/mL (≈ 2.36 µM). The compound also gave an MIC MH 12587 in test [4] of 6.3 µg/mL (≈ 18.6 µM). In addition, the MIC MH 13065 in [5] is 3.1 µg/mL (≈ 9.14 µM). This compound also gave an MIC MH 13093 in [6] of 6.3 µg/mL (≈ 18.6 µM). In test [7], this compound had an MIC PM 6267 of 0.8 µg/mL (≈ 2.36 µM). Further, the MIC PM 6391 in test [8] was 1.6 µg/mL (≈ 4.71 µM). The compound further yielded an MIC PM 10775 in test [9] not above 0.1 µg/mL. This compound also gave an MIC PM 12080 in test [10] of 1.6 µg/mL (≈ 4.71 µM).
On to `CON=C(C)[C@H](NC(=O)c1ccc(C#Cc2ccc(CNC3CC3)cc2)cc1)C(=O)NO` [Compound 378], for which the MIC MH 6357 in test [1] is 0.8 µg/mL (≈ 1.84 µM). Besides, the MIC MH 6374 in [2] was 0.8 µg/mL (≈ 1.84 µM). Further, the MIC MH 10720 in [3] worked out at 0.4 µg/mL (≈ 0.921 µM). The same compound showed an MIC MH 12587 in test [4] of 0.2 µg/mL (≈ 0.46 µM). Moreover, the MIC MH 13065 in test [5] came to 0.8 µg/mL (≈ 1.84 µM). The compound further yielded an MIC MH 13093 in test [6] of 0.8 µg/mL (≈ 1.84 µM). In test [7], this compound came in with an MIC PM 6267 of 1.6 µg/mL (≈ 3.68 µM). The MIC PM 6391 in test [8] is not above 0.1 µg/mL. The same compound gave an MIC PM 10775 in test [9] of 0.4 µg/mL (≈ 0.921 µM). Further, in test [10], the MIC PM 12080 was 0.2 µg/mL (≈ 0.46 µM).
